Several values for one entry are separate records, joined by “and”; a condition that tells them apart may be missing. Equal entries are not always repeated. Where two headings read alike, the source gives them in different places.
Key:
[1] = system: Ba2+ current through CaV1.2 channels; parameters: method as in Ren et al., 2022; conditions: ∼37 °C; ref Ren et al., 2022; cited from earlier work
[2] = system: hERG; conditions: ref Crumb et al., 2016, cited from earlier work
[3] = system: IBa or Ba2+ current through CaV1.2 channels; conditions: read-out: IBa (Ba2+ current through CaV1.2) IC50; prior study; 36 °C; ref Crumb et al., 2016; cited from earlier work
[4] = system: INaL (NaV1.5 channels); conditions: prior study, ref Crumb et al., 2016, cited from earlier work; for IC50: read-out: INaL IC50, veratridine, 36 °C
[5] = system: adult human primary ventricular trabeculae; test: Action potential recordings from adult human ventricular trabeculae (sharp electrode)
[6] = system: adult human primary ventricular trabeculae; conditions: mexiletine at 3X concentration as tested here; ref Qu et al., 2017; cited from earlier work
[7] = system: INaL; parameters: method as in Wu et al., 2019; conditions: room temperature, ref Wu et al., 2019, cited from earlier work
[8] = system: hERG1a and hERG1a/1b channels; conditions: cited from earlier work
[9] = used to calculate free Cmax; no reference given; cited from earlier work
[10] = biological target: hERG (Homo sapiens, UniProt Q12809); test: in vitro; conditions: HEK293 cells stably expressing the hERG1a subunit, pH 7.4
hERG (Homo sapiens, UniProt Q12809), sequence (Q12809 whole entry): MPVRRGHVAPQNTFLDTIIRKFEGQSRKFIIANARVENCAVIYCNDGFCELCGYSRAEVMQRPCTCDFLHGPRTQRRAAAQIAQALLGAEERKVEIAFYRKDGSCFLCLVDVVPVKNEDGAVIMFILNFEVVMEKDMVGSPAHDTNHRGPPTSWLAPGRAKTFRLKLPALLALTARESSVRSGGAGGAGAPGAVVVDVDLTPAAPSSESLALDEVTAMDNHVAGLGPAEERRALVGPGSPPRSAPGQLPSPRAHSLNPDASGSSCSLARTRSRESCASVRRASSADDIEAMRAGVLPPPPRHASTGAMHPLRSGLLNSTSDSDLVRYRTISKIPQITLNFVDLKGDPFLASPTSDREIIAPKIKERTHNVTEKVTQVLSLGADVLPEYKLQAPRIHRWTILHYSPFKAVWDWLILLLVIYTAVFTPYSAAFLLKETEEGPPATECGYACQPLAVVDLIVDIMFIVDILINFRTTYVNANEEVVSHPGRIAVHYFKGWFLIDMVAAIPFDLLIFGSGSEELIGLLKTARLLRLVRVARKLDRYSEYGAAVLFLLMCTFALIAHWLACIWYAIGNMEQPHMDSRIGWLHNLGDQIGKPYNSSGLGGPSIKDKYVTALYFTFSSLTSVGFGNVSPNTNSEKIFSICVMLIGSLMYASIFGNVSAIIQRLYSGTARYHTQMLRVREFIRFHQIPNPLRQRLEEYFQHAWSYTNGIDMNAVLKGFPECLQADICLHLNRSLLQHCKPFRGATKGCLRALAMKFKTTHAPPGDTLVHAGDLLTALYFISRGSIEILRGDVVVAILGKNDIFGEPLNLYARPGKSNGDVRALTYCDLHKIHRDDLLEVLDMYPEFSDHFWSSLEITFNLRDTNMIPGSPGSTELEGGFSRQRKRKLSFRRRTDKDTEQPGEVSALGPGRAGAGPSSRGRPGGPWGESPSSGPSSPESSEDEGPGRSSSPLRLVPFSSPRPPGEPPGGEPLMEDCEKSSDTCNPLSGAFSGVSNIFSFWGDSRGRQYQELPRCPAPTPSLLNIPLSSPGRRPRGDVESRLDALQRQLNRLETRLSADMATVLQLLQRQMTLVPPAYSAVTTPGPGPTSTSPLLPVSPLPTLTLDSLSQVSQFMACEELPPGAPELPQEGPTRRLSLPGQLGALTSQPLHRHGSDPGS

[11] = biological target: hERG current (HEK293 cells expressing the hERG1a subunit) (Homo sapiens, UniProt Q12809); test: cell-based
hERG current (HEK293 cells expressing the hERG1a subunit), sequence (Q12809 whole entry): as above

[12] = calculated with MW and protein binding; ref Johannesen et al., 2016; cited from earlier work
[13] = system: clinical ECG; conditions: lidocaine or mexiletine co-administered with dofetilide; diltiazem with moxifloxacin; ref Johannesen et al., 2016; cited from earlier work
[14] = diltiazem 3.84 then 38.4 µM or nifedipine 0.23 then 1 µM, alone

COc1ccc([C@@H]2Sc3ccccc3N(CCN(C)C)C(=O)[C@@H]2OC(C)=O)cc1 [diltiazem]
IC50 [1]: 0.8 µM
hERG current inhibition when 50% of CaV1.2 channels were blocked ([2]; prior study): no inhibition
IC50 [3]: 0.112 µM
INaL inhibition when 50% of CaV1.2 channels were blocked [4]: no inhibition
IC50 [4]: 24.5 µM
AP triangulation [5, 14]: resulting in AP triangulation

CN(CCOc1ccc(NS(C)(=O)=O)cc1)CCc1ccc(NS(C)(=O)=O)cc1 [dofetilide]
AP triangulation (APD90 minus APD30) ([5]; dofetilide 0.1 µM alone, 1 Hz): resulting in AP triangulation
AP triangulation ([5]; dofetilide in the presence of diltiazem or nifedipine): induced AP triangulation

O=C(NCC1CCCCN1)c1cc(OCC(F)(F)F)ccc1OCC(F)(F)F (stereo not shown) [flecainide]
AP height [6]: reduced AP height

Nc1nnc(-c2cccc(Cl)c2Cl)c(N)n1 [lamotrigine]
AP height [6]: reduced AP height

CCN(CC)CC(=O)Nc1c(C)cccc1C [lidocaine]
IC50 ([7]; read-out: INaL IC50 obtained in ATX-II): 31.7 µM
IC50 ([7]; read-out: INaL IC50 obtained in veratridine): 395 µM

CCC(=O)C(CC(C)N(C)C)(c1ccccc1)c1ccccc1 (stereo not shown) [methadone]
pharmacological difference between hERG1a and hERG1a/1b channels [8]: no pharmacological differences

Cc1cccc(C)c1OCC(C)N (stereo not shown) [mexiletine]
AP height [6]: reduced AP height
percent protein binding (PB) [9]: 55%
inhibition at 10 µM [10]: ~20%
IC50 [11]: 55.6 µM
hERG current inhibition ([2]; 10 μM, highest concentration tested in prior study): ~10%
IC50 [3]: 38.2 µM
IC50 [4]: 9.3 µM and 9 µM
free clinical Cmax [12]: 3.6 µM
effect on hERG block-induced QTC and J-TpeakC prolongation [13]: shortened by co-administration

C=CCN1CC[C@]23c4c5ccc(O)c4O[C@H]2C(=O)CC[C@@]3(O)[C@H]1C5 [naloxone]
pharmacological difference between hERG1a and hERG1a/1b channels ([8]; ref Tran et al., 2020): no pharmacological differences

O=C1CC[C@@]2(O)[C@H]3Cc4ccc(O)c5c4[C@@]2(CCN3CC2CC2)[C@H]1O5 [naltrexone]
pharmacological difference between hERG1a and hERG1a/1b channels ([8]; ref Tran et al., 2020): no pharmacological differences

COC(=O)C1=C(C)NC(C)=C(C(=O)OC)C1c1ccccc1[N+](=O)[O-] [nifedipine]
AP triangulation [5, 14]: no AP triangulation

COc1ccccc1OCC(O)CN1CCN(CC(=O)Nc2c(C)cccc2C)CC1 (stereo not shown) [ranolazine]
AP height [6]: did not

buprenorphine
pharmacological difference between hERG1a and hERG1a/1b channels [8]: no pharmacological differences
